Measured values from ChEMBL document CHEMBL5331110, “Eyes on Topical Ocular Disposition: The Considered Design of a Lead Janus Kinase (JAK) Inhibitor That Utilizes a Unique Azetidin-3-Amino Bridging Scaffold to Attenuate Off-Target Kinase Activity, While Driving Potency and Aqueous Solubility” (J Med Chem, 2023).
≈ marks a conversion by molar mass, not a printed value.

Tests used:
[1] = target: Non-receptor tyrosine-protein kinase TYK2 (Homo sapiens, UniProt P29597)
Description: Inhibition of TYK2 (unknown origin) incubated for 45 to 120 mins in presence of ATP by Kinase-Glo luminescent assay

[2] = target: Tyrosine-protein kinase JAK1 (Homo sapiens, UniProt P23458); assay: Inhibition of JAK1 (unknown origin) incubated for 45 to 120 mins in presence of ATP by Kinase-Glo luminescent assay
Chain of Tyrosine-protein kinase JAK1 (P23458 whole entry): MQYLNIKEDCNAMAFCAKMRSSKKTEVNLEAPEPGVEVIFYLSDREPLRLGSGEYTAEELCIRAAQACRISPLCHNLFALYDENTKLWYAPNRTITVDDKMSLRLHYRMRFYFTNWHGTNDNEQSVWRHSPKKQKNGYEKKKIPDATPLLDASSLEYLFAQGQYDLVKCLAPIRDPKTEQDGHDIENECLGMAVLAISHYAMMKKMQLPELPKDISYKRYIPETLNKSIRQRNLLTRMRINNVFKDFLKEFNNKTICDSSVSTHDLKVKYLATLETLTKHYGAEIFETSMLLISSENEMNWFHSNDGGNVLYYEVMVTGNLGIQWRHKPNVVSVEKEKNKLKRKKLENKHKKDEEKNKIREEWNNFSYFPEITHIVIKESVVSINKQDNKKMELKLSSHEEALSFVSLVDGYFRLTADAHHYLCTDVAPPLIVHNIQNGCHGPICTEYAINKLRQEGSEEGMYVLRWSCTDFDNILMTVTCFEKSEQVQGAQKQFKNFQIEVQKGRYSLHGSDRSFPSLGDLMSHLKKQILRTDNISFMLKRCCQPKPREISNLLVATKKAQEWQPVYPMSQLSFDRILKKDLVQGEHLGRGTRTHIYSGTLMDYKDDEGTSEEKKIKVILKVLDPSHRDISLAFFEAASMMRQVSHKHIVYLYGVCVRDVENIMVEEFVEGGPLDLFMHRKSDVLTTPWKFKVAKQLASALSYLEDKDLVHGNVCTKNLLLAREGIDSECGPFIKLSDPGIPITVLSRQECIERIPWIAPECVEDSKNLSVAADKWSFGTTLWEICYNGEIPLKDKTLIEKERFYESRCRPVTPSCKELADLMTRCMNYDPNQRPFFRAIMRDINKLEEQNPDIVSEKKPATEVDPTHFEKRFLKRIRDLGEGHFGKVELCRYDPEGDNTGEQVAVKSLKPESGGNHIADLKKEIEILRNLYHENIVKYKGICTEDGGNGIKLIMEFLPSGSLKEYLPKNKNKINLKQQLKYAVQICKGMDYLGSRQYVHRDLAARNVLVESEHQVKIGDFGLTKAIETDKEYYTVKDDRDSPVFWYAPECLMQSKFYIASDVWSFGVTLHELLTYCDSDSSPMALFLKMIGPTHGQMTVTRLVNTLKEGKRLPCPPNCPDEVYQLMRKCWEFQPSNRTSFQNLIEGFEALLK

[3] = target: Tyrosine-protein kinase ABL1 (Homo sapiens, UniProt P00519)
Description: Inhibition of ABL1 (unknown origin) incubated for 45 to 120 mins in presence of ATP by Kinase-Glo luminescent assay

[4] = target: Tyrosine-protein kinase JAK2 (Homo sapiens, UniProt O60674)
Description: Inhibition of JAK2 (unknown origin) incubated for 45 to 120 mins in presence of ATP by Kinase-Glo luminescent assay

[5] = target: Glycogen synthase kinase-3 beta (Homo sapiens, UniProt P49841)
Chain of Glycogen synthase kinase-3 beta (P49841 whole entry): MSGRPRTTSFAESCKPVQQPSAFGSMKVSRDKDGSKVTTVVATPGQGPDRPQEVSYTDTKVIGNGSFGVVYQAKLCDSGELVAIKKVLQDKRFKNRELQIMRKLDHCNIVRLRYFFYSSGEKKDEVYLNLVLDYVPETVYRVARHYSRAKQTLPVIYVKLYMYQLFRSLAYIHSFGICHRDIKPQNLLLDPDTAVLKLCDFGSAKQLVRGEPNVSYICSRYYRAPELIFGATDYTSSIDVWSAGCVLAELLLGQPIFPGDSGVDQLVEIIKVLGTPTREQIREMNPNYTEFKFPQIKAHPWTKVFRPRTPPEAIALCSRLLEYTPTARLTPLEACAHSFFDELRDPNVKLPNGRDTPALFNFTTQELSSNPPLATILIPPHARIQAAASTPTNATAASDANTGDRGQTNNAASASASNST
Description: Inhibition of GSK3B (unknown origin) incubated for 45 to 120 mins in presence of ATP by Kinase-Glo luminescent assay

[6] = target: T1, Tyrosine-protein kinase JAK3 (Homo sapiens, UniProt P52333)
T1 sequence (P52333 whole entry): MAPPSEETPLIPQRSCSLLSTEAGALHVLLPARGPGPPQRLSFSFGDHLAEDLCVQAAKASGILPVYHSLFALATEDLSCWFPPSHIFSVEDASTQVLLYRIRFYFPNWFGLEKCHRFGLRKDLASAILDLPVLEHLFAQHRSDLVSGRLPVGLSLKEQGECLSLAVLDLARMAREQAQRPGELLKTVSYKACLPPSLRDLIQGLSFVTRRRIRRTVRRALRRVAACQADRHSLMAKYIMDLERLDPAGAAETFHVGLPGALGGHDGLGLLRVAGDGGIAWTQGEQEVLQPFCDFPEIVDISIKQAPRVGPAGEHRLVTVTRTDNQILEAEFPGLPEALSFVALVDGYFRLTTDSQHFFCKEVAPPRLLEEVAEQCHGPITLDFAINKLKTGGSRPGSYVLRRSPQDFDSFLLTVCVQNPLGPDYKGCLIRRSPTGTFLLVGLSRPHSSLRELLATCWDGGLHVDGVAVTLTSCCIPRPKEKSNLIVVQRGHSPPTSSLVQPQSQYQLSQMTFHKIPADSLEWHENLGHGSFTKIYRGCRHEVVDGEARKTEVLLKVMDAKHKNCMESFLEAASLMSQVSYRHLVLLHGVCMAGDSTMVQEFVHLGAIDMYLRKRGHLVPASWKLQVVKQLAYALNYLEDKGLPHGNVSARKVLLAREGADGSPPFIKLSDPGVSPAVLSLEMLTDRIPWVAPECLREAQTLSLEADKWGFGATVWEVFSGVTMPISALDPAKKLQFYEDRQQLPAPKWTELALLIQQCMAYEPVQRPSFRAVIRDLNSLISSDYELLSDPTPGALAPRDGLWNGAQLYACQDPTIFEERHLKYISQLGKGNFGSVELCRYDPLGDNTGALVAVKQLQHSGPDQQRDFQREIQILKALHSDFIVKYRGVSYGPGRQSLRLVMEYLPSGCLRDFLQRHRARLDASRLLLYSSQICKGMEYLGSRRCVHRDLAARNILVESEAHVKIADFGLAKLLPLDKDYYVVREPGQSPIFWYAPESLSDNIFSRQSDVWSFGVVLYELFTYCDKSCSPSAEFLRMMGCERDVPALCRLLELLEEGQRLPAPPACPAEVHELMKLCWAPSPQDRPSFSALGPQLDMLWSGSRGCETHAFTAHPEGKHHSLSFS
Description: Inhibition of JAK3 (unknown origin) incubated for 45 to 120 mins in presence of ATP by Kinase-Glo luminescent assay

[7] = target: Aurora kinase B (Homo sapiens, UniProt Q96GD4)
Chain of Aurora kinase B (Q96GD4 whole entry): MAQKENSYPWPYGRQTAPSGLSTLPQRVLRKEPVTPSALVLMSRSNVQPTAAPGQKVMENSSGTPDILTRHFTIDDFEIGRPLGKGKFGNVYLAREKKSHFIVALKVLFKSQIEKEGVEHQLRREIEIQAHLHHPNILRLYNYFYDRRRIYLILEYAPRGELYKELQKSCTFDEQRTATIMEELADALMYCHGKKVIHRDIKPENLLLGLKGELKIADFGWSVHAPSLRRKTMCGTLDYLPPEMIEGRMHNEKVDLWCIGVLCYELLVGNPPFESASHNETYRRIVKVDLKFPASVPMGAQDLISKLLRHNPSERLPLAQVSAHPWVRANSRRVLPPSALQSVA
Description: Inhibition of AURKB (unknown origin) incubated for 45 to 120 mins in presence of ATP by Kinase-Glo luminescent assay

[8] = Dissociation constant, pKa of the compound by potentiometric titration method
[9] = Intrinsic aqueous solubility of the compound in citrate buffer at pH 6 by HPLC-UV/MS analysis
[10] = target: Vascular endothelial growth factor receptor 2 (Homo sapiens, UniProt P35968)
Chain of Vascular endothelial growth factor receptor 2 (P35968 whole entry): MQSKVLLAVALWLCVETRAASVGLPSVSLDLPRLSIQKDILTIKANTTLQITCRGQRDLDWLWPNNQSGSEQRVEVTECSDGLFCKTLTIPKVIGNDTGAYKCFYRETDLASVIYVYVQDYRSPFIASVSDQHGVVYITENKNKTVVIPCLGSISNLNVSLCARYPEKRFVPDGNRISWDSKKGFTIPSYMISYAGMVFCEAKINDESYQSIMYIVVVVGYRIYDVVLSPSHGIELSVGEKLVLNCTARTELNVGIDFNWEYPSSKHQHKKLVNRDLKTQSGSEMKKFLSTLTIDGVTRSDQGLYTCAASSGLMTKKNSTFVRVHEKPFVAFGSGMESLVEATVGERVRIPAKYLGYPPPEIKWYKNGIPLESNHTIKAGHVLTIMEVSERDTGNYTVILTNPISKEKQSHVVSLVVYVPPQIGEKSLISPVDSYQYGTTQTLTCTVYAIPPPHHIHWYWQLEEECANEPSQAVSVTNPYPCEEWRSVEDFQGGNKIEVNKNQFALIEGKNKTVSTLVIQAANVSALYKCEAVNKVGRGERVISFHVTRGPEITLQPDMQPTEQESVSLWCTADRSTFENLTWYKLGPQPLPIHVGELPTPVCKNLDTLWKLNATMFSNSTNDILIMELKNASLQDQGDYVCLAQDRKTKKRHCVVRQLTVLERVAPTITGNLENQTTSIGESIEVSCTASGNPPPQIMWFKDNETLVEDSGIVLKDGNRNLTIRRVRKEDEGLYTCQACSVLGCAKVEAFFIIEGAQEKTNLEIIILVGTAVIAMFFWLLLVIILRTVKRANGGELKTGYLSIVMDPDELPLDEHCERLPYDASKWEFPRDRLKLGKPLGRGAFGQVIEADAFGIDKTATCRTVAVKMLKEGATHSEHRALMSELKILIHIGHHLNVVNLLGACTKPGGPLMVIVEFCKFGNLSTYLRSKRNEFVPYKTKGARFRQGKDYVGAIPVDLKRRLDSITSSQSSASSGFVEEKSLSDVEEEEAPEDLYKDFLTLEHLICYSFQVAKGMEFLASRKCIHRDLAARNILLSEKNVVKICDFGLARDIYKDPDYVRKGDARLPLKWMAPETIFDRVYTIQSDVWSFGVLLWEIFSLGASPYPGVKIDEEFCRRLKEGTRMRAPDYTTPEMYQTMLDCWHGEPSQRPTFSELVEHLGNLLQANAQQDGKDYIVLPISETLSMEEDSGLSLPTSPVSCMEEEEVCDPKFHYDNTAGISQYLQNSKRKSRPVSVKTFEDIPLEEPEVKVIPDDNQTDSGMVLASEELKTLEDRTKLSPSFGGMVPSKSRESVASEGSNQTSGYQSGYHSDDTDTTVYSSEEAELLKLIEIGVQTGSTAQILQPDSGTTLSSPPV
Description: Inhibition of KDR (unknown origin) incubated for 45 to 120 mins in presence of ATP by Kinase-Glo luminescent assay

Chain of Non-receptor tyrosine-protein kinase TYK2 (P29597 whole entry): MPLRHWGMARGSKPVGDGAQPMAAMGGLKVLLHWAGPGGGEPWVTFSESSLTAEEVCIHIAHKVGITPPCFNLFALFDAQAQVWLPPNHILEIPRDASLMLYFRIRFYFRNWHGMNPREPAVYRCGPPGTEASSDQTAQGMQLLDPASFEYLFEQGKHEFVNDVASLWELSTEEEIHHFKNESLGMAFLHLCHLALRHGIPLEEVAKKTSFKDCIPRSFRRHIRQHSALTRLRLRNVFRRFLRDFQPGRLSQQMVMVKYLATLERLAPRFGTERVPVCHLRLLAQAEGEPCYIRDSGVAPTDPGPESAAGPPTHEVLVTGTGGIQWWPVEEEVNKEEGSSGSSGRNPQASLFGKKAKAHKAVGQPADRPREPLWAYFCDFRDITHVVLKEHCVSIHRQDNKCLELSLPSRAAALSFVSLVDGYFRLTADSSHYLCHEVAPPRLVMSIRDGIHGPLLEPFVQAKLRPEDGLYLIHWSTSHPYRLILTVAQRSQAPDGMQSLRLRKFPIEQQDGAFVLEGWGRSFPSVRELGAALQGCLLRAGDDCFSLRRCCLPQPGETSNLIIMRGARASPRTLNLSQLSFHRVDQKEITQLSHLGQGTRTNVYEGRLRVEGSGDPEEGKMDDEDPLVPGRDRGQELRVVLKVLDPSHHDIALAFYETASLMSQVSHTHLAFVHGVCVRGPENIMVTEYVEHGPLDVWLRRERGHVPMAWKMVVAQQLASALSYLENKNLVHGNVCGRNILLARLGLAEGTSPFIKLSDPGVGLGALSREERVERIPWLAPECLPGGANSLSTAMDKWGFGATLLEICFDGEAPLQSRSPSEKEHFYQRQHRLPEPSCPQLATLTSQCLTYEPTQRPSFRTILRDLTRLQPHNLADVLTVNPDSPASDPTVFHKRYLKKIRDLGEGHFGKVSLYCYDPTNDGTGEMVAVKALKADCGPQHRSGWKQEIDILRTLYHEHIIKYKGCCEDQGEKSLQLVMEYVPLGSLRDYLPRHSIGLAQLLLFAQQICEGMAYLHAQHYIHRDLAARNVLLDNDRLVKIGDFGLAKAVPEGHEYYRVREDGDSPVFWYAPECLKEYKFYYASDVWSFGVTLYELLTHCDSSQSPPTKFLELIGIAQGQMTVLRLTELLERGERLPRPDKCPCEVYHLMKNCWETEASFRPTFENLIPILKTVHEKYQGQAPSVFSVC

| SMILES | IC50 [1] | IC50 [2] | IC50 [3] | IC50 [4] | IC50 [5] | IC50 [6] | IC50 [7] | pKa [8] | solubility [9] | IC50 [10] |
| --- | --- | --- | --- | --- | --- | --- | --- | --- | --- | --- |
| Cc1cc(Nc2cc(-c3cnn(CCC#N)c3)c(Cl)cn2)sn1 | 50000 nM | 50000 nM | – | – | – | – | – | – | – | – |
| Cc1cnc(Nc2cnn(C)c2)nc1-c1cnn([C@H](CC#N)C2CCCC2)c1 | 0.98 nM | 0.99 nM | 351 nM | 0.98 nM | 395 nM | 3.4 nM | 7 nM | – | – | – |
| Cc1cc(Nc2ncc(C)c(N3CC(CC#N)(N4CCN(C)CC4)C3)n2)sn1 | 2.9 nM | – | 21400 nM | – | – | 70 nM | 441 nM | – | – | – |
| Cc1cnc(Nc2ccc(N3CCOCC3)cc2)nc1-c1cnn(CCC#N)c1 | 2 nM | 15 nM | – | 2 nM | – | 18 nM | – | 4.2 | 13 µM (≈ 5.06 µg/mL) | – |
| Cc1cc(Nc2ncc(C)c(N3CCN(CC#N)CC3)n2)sn1 | – | – | 467 nM | 3.4 nM | 1620 nM | – | 1.5 nM | – | 7 µM (≈ 2.31 µg/mL) | 41 nM |
| Cc1cc(Nc2ncc(C)c(N3CC4CCC(C3)N4CC#N)n2)sn1 | – | – | 1310 nM | 3.9 nM | 1680 nM | – | 4 nM | – | 11 µM (≈ 3.91 µg/mL) | 221 nM |
| Cc1cc(Nc2ncc(C)c(N3CC(C4CC4)C3)n2)sn1 | – | – | – | 3.4 nM | – | – | 21 nM | – | – | – |
| Cc1cc(Nc2ncc(C)c(N3CC4CCCC(C3)N4CCC#N)n2)sn1 | – | – | 537 nM | 0.98 nM | 565 nM | – | 2.5 nM | – | 11 µM (≈ 4.22 µg/mL) | 109 nM |
| Cc1cc(Nc2ncc(C)c(N3CC4CCC(C3)N4CCC#N)n2)sn1 | – | – | – | 0.98 nM | 311 nM | – | 1.5 nM | – | – | 96 nM |
| Cc1cc(Nc2ncc(C)c(N3CC4CCCC(C3)N4CC#N)n2)sn1 | – | – | 2030 nM | 5.4 nM | 3240 nM | – | 364 nM | – | 35 µM (≈ 12.9 µg/mL) | 1580 nM |
| Cc1cnc(Nc2cnn(C)c2)nc1N1CC2CCCC(C1)N2CCC#N | 3.4 nM | 2 nM | – | 3.4 nM | 9900 nM | 11 nM | 19 nM | – | – | 936 nM |
| Cc1cnc(Nc2cnn(C)c2)nc1N1CC2CCCC(C1)N2CC#N | – | – | 16800 nM | 61 nM | 36400 nM | – | 913 nM | – | 7090 µM (≈ 2500 µg/mL) | 7390 nM |
| Cc1cc(Nc2ncc(C)c(N3CCN(CC#N)[C@@H](C)C3)n2)sn1 | – | – | 228 nM | 1.5 nM | 2200 nM | – | 22 nM | – | 16 µM (≈ 5.5 µg/mL) | 30 nM |
| Cc1cc(Nc2ncc(C)c(N3CC(CC#N)C3)n2)sn1 | – | – | – | 9 nM | – | – | 6 nM | – | – | – |
| Cc1cc(Nc2ncc(C)c(-c3cnn(CCC#N)c3)n2)sn1 | 1.5 nM | 3 nM | 207 nM | 2 nM | – | 14 nM | 2.5 nM | – | – | – |
| Cc1cc(Nc2ncc(Cl)c(-c3cnn(CCC#N)c3)n2)sn1 | 1.5 nM | 3 nM | – | – | – | – | – | – | – | – |
| Cc1cnc(Nc2cnn(C)c2)nc1N1CC(CC#N)(N2CCN(C)CC2)C1 | – | – | 50000 nM | 34 nM | – | – | 764 nM | – | – | – |
| Cc1cc(Nc2ncc(C)c(N3CCN(CC#N)C(C)C3)n2)sn1 (stereo not given) | – | – | 1240 nM | 3 nM | 1360 nM | – | 3 nM | – | 19 µM (≈ 6.53 µg/mL) | 55 nM |
| Cc1cc(Nc2ncc(C)c(N3CC(CC#N)(N4CCCC4)C3)n2)sn1 | – | – | – | – | – | – | 22 nM | – | – | – |
| Cc1cnc(NC2CCOCC2)nc1-c1cnn(CCC#N)c1 | 50000 nM | 50000 nM | – | 41900 nM | – | 50000 nM | – | – | 390 µM (≈ 122 µg/mL) | – |
| Cc1cc(Nc2ncc(C)c(N3CC(CC#N)(N4CCCCC4)C3)n2)sn1 | – | – | 8430 nM | 4.4 nM | – | – | – | – | – | – |
| Cc1cc(Nc2ncc(C)c(N3CC(CCC#N)C3)n2)sn1 | – | – | 568 nM | 13 nM | – | – | 3 nM | – | – | – |
| Cc1cc(Nc2ncc(C)c(N3CC(O)(C4CC4)C3)n2)sn1 | – | – | 80 nM | 2.5 nM | – | – | 0.97 nM | – | – | – |
| Cc1cc(Nc2ncc(C)c(N3CCC(CC#N)CC3)n2)sn1 | – | – | – | – | – | – | 1.1 nM | – | – | – |
| Cc1cnc(NCCN2CCOCC2)nc1-c1cnn(CCC#N)c1 | – | 50000 nM | – | 19500 nM | – | 50000 nM | – | – | – | – |
| Cc1cnc(Nc2ccc(N3CCN(C)CC3)cc2)nc1-c1cnn(CCC#N)c1 | 2 nM | 13 nM | – | 2 nM | – | 16 nM | – | – | 33500 µM (≈ 13500 µg/mL) | – |
| Cc1cc(Nc2ncc(C)c(N3CC(CC#N)(OC4CC5(CC5)C4)C3)n2)sn1 | – | – | 10300 nM | 8 nM | – | – | 187 nM | – | – | – |
| Cn1cc(Nc2nccc(-c3cnn(CCC#N)c3)n2)cn1 | 49 nM | 538 nM | – | 27 nM | – | – | – | – | – | – |
| Cc1cnc(Nc2cnn(C)c2)nc1-c1cnn(CCC#N)c1 | 3.4 nM | 12 nM | – | – | – | 55 nM | – | – | 69 µM (≈ 21.3 µg/mL) | – |
| Cc1cnc(Nc2ccccc2)nc1-c1cnn(CCC#N)c1 | 11 nM | 50 nM | – | 6 nM | – | 143 nM | – | – | 52 µM (≈ 15.8 µg/mL) | – |
